Values quoted from earlier work as cited in patent US8222294B2, “Combinations of an anti emetic agent and an enkephalinase inhibitor” (Bioproject, priority 2004, dated 2012).

Test system: cholera toxins
Conditions: cited from earlier work

Structure (SMILES)	antisecretory activity
CC(=O)SC[C@H](Cc1ccccc1)C(=O)NCC(=O)OCc1ccccc1 [dexecadotril]	active
Cc1nccn1CC1CCc2c(c3ccccc3n2C)C1=O (stereo not drawn) [ondansetron]	not
CC(=O)SCC(Cc1ccccc1)C(=O)NCC(=O)OCc1ccccc1 (stereo not drawn) [racecadotril]	active
